The text below walks through data of PubChem BioAssay (NCI).

Structures are written as SMILES. “And” between values parts separate entries of the source, which are not always exact repeats. Identical values can stand only once.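 Test compounds were applied to cells in 96-well plates for 48 hours at 5 doses. GI50: concentration for 50% inhibition of growth. TGI: total growth inhibition.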 Bounds are passed on as bounds.

One test has as its system NCI-H522 lung. The test is described as follows: growth of human tumour cells (NCI), 48 h.
Turning to `c1cnn2ncc(-c3ccnc(Nc4ccc5c(c4)OCCO5)n3)c2c1`, the GI50 was 116 nM and the TGI was found to be 0.592 µM.
Turning to `Cc1ccc(-n2nc(C(C)(C)C)cc2NC(=O)NCc2cc(F)ccc2Oc2ccc3c(cnn3CCO)c2)cc1`, the GI50 is > 10000 nM and 5320 nM; the TGI was > 10 µM and 37.8 µM.
Regarding `Cc1cc(C)n(C2=NS(=O)(=O)c3ccccc3N2C)n1`, the TGI was over 100 µM.
Take `COc1cccc2c(=O)c3c(sc12)c(NCCCNCCO)nc1ccccc13`: the GI50 was 1580 nM and the TGI turned out to be 3.45 µM.
`O=C1c2cccc3cccc(c23)C(=O)N1O` registered a TGI of over 100 µM.
With `O=C(O)c1ccccc1C(=O)c1ccc2c(c1)Cc1ccccc1-2`, the TGI was over 100 µM.
In the case of `COc1ccc(Nc2nccc(N3CCN(c4c5ccc(Cl)cc5nc5ccc(OC)cc45)CC3)n2)cc1`, the GI50 is 1780 nM and the TGI was 5.09 µM.
On the same counts, the results for `CC(=Nc1ccc(S(N)(=O)=O)cc1)c1c(O)[nH]c2ccccc12` are over 25000 nM and over 25 µM.
The corresponding values for `CCn1c(-c2nonc2N)nc2ccncc21` are over 25000 nM and over 25 µM.
The corresponding values for `CC(C)[O-].CC(C)[O-].CN(CCN(C)Cc1cc(F)cc(F)c1[O-])Cc1cc(F)cc(F)c1[O-].[Ti+4]` are 777 nM and 2.33 µM.
Turning to `CSc1ccc(N(C)c2nc(C)nc3c2CCC3)cc1`, the GI50 was under 10 nM and the TGI is under 0.01 µM.
On the same counts, the results for `Clc1ccc2c(c1)N(c1ncnc3ccc(-c4cnc5[nH]ncc5c4)cc13)CC2` are 2230 nM and over 100 µM.
The corresponding values for `O=C1/C(=C/c2ccc([N+](=O)[O-])cc2)COc2ccc(O)cc21` are 2050 nM and 6.05 µM.
The corresponding values for `COc1ccc(-c2cnoc2-c2cc(OC)c3c(c2)OCCO3)cc1` are under 14.1 nM and 0.0842 µM.
As for `CC(C)Oc1ccc(C(=O)Cn2ccnc2)cc1-n1c(CN2CCN(C(=O)COc3ccc(Cl)cc3)CC2)nc2ccccc2c1=O`, the GI50 is 2240 nM and the TGI worked out at 14.8 µM.
On the same counts, the results for `COc1cccc(COc2cc(-n3cnc4ccccc43)sc2C(N)=O)c1` are 9920 nM and over 25 µM.
On the same counts, the results for `CCN(CC)c1ccc(/C=C/C2=[N+](C)c3ccccc3C2(C)C)c(C)c1` are 48.2 nM and 0.269 µM.
The corresponding values for `Fc1ccc2nc(-c3cc(-c4ccc5c(c4)OCO5)n[nH]3)[nH]c2c1` are 2610 nM and 13 µM.
As for `COC(=O)c1ccc2c(c1)C(=O)c1c-2n(CCCN=[N+]=[N-])c(=O)c2cc([N+](=O)[O-])ccc12`, the GI50 is 34300 nM and the TGI is over 100 µM.
On to `O=C(c1cccs1)C1NO[N+]([O-])=C1c1cccs1` (stereo not given), for which the GI50 is 174 nM and the TGI was 0.336 µM.
`CN1c2ccccc2SC2C(c3ccccc3)=NOC21` (stereo not given) had a TGI of 64.1 µM.
With `O=C1c2ccccc2-c2c1c1ccccc1c(=O)n2CCNCCn1c2c(c3ccccc3c1=O)C(=O)c1ccccc1-2`, the GI50 is over 25000 nM and the TGI was over 25 µM.
The corresponding values for `CCCCCCCCCCCCCC[n+]1cccc(C(N)=O)c1` are 1310 nM and 6.24 µM.
On the same counts, the results for `[2H]c1nc(=Nc2cc(NC(=O)C=C)c(N(C)CCN(C)C)cc2OC)[nH]c(-c2cn(C([2H])([2H])[2H])c3ccccc23)c1[2H]` are 265 nM and 2.24 µM.

In a further test the test system is MDA-MB-435. The experiment in a line: growth of human tumour cells (NCI), 48 h.
Compound `O=C(Cl)C1=C(c2ccccc2)C1c1ccccc1` (stereo not given) had a TGI of over 100 µM.
On to `O=C(/C=C/c1cccc(O)c1)c1cccc(-n2cc(-c3ccc4ccccc4c3)[nH]c2=O)c1`, for which the GI50 was 1710 nM and the TGI amounted to 6.31 µM.
The corresponding values for `c1cnn2ncc(-c3ccnc(Nc4ccc5c(c4)OCCO5)n3)c2c1` are 81.3 nM and 0.516 µM.
With `Cc1ccc(-n2nc(C(C)(C)C)cc2NC(=O)NCc2cc(F)ccc2Oc2ccc3c(cnn3CCO)c2)cc1`, the GI50 was 3370 nM and 2750 nM; the TGI was over 62.5 µM.
For the compound `Cc1cc(C)n(C2=NS(=O)(=O)c3ccccc3N2C)n1`, the TGI was over 100 µM.
With `COc1cccc2c(=O)c3c(sc12)c(NCCCNCCO)nc1ccccc13`, the GI50 was 1720 nM and the TGI was determined as 3.2 µM.
Compound `O=C1c2cccc3cccc(c23)C(=O)N1O` came in with a TGI of over 100 µM.
Same read-out and setting: the value for `O=C(O)c1ccccc1C(=O)c1ccc2c(c1)Cc1ccccc1-2` was over 100 µM; that for `C=CC1=C(C)C2=NC1=CC1=NC(=CC3=C(C)C4=C(O)[C@H](C(=O)OC)C(=C5NC(=C2)[C@@H](C)[C@@H]5CCC(=O)O)C4=N3)C(CC)=C1C` was over 46.5 µM.
Regarding `COc1ccc(Nc2nccc(N3CCN(c4c5ccc(Cl)cc5nc5ccc(OC)cc45)CC3)n2)cc1`, the GI50 is 8280 nM and the TGI is over 100 µM.
The corresponding values for `CC(=Nc1ccc(S(N)(=O)=O)cc1)c1c(O)[nH]c2ccccc12` are over 25000 nM and over 25 µM.
In the case of `CCn1c(-c2nonc2N)nc2ccncc21`, the GI50 was over 25000 nM and the TGI was over 25 µM.
The corresponding values for `CC(C)[O-].CC(C)[O-].CN(CCN(C)Cc1cc(F)cc(F)c1[O-])Cc1cc(F)cc(F)c1[O-].[Ti+4]` are 585 nM and 2.1 µM.
In the case of `Clc1ccc2c(c1)N(c1ncnc3ccc(-c4cnc5[nH]ncc5c4)cc13)CC2`, the GI50 was 804 nM and the TGI was over 100 µM.
The corresponding values for `O=C1/C(=C/c2ccc([N+](=O)[O-])cc2)COc2ccc(O)cc21` are 5210 nM and 29.7 µM.
Turning to `CC(C)Oc1ccc(C(=O)Cn2ccnc2)cc1-n1c(CN2CCN(C(=O)COc3ccc(Cl)cc3)CC2)nc2ccccc2c1=O`, the GI50 is 15600 nM and the TGI worked out at 33.6 µM.
The corresponding values for `COc1cccc(COc2cc(-n3cnc4ccccc43)sc2C(N)=O)c1` are 1300 nM and over 25 µM.
On the same counts, the results for `CCN(CC)c1ccc(/C=C/C2=[N+](C)c3ccccc3C2(C)C)c(C)c1` are 65.3 nM and 1.32 µM.
Take `Fc1ccc2nc(-c3cc(-c4ccc5c(c4)OCO5)n[nH]3)[nH]c2c1`: the GI50 was 4490 nM and the TGI was over 71.7 µM.
The corresponding values for `COC(=O)c1ccc2c(c1)C(=O)c1c-2n(CCCN=[N+]=[N-])c(=O)c2cc([N+](=O)[O-])ccc12` are over 100000 nM and over 100 µM.
The corresponding values for `O=C(c1cccs1)C1NO[N+]([O-])=C1c1cccs1` (stereo not given) are 5290 nM and 16.3 µM.
On the same counts, the results for `CCOC(=O)N1CCN(CCCCCOc2ccccc2C2CCCCC2)CC1` are 3880 nM and 15.1 µM.
`O=C1c2ccccc2-c2c1c1ccccc1c(=O)n2CCNCCn1c2c(c3ccccc3c1=O)C(=O)c1ccccc1-2`: the GI50 is over 25000 nM and the TGI is over 25 µM.
Take `CCCCCCCCCCCCCC[n+]1cccc(C(N)=O)c1`: the GI50 is 1500 nM and the TGI was found to be 3.24 µM.
On the same counts, the results for `[2H]c1nc(=Nc2cc(NC(=O)C=C)c(N(C)CCN(C)C)cc2OC)[nH]c(-c2cn(C([2H])([2H])[2H])c3ccccc23)c1[2H]` are 1620 nM and 3.09 µM.

Another test has as its system LOX IMVI melanoma. The experiment in a line: growth of human tumour cells (NCI), 48 h.
Compound `O=C(Cl)C1=C(c2ccccc2)C1c1ccccc1` (stereo not given) came in with a TGI of over 100 µM.
For the compound `O=C(/C=C/c1cccc(O)c1)c1cccc(-n2cc(-c3ccc4ccccc4c3)[nH]c2=O)c1`, the GI50 is 858 nM and the TGI is 2.08 µM.
The corresponding values for `c1cnn2ncc(-c3ccnc(Nc4ccc5c(c4)OCCO5)n3)c2c1` are 39.2 nM and over 25 µM.
`Cc1ccc(-n2nc(C(C)(C)C)cc2NC(=O)NCc2cc(F)ccc2Oc2ccc3c(cnn3CCO)c2)cc1`: the GI50 is 836 nM and 2370 nM; the TGI was over 38.1 µM.
For the compound `Cc1cc(C)n(C2=NS(=O)(=O)c3ccccc3N2C)n1`, the TGI is over 100 µM.
Consider `COc1cccc2c(=O)c3c(sc12)c(NCCCNCCO)nc1ccccc13`, for which the GI50 is 1480 nM and the TGI was 2.96 µM.
Regarding `O=C1c2cccc3cccc(c23)C(=O)N1O`, the TGI was over 100 µM.
On the same count and under the same terms, the value for `O=C(O)c1ccccc1C(=O)c1ccc2c(c1)Cc1ccccc1-2` was over 100 µM.
On to `COc1ccc(Nc2nccc(N3CCN(c4c5ccc(Cl)cc5nc5ccc(OC)cc45)CC3)n2)cc1`, for which the GI50 is 6110 nM and the TGI is over 100 µM.
On the same counts, the results for `CC(=Nc1ccc(S(N)(=O)=O)cc1)c1c(O)[nH]c2ccccc12` are over 25000 nM and over 25 µM.
On the same counts, the results for `CCn1c(-c2nonc2N)nc2ccncc21` are over 25000 nM and over 25 µM.
On the same counts, the results for `CC(C)[O-].CC(C)[O-].CN(CCN(C)Cc1cc(F)cc(F)c1[O-])Cc1cc(F)cc(F)c1[O-].[Ti+4]` are 784 nM and 3.88 µM.
In the case of `CSc1ccc(N(C)c2nc(C)nc3c2CCC3)cc1`, the GI50 was under 10 nM and the TGI is 13.7 µM.
On to `Clc1ccc2c(c1)N(c1ncnc3ccc(-c4cnc5[nH]ncc5c4)cc13)CC2`, for which the GI50 was 338 nM and the TGI was over 100 µM.
As for `O=C1/C(=C/c2ccc([N+](=O)[O-])cc2)COc2ccc(O)cc21`, the GI50 was 1680 nM and the TGI was determined as 3.23 µM.
On the same counts, the results for `COc1ccc(-c2cnoc2-c2cc(OC)c3c(c2)OCCO3)cc1` are 63.2 nM and 22.5 µM.
The corresponding values for `CC(C)Oc1ccc(C(=O)Cn2ccnc2)cc1-n1c(CN2CCN(C(=O)COc3ccc(Cl)cc3)CC2)nc2ccccc2c1=O` are 9640 nM and 27.5 µM.
On the same counts, the results for `COc1cccc(COc2cc(-n3cnc4ccccc43)sc2C(N)=O)c1` are over 25000 nM and over 25 µM.
As to `CCN(CC)c1ccc(/C=C/C2=[N+](C)c3ccccc3C2(C)C)c(C)c1`, the GI50 was 53.5 nM and the TGI is 1.28 µM.
The corresponding values for `Fc1ccc2nc(-c3cc(-c4ccc5c(c4)OCO5)n[nH]3)[nH]c2c1` are 2180 nM and 10.4 µM.
Take `COC(=O)c1ccc2c(c1)C(=O)c1c-2n(CCCN=[N+]=[N-])c(=O)c2cc([N+](=O)[O-])ccc12`: the GI50 was 61600 nM and the TGI is over 100 µM.
On the same counts, the results for `O=C(c1cccs1)C1NO[N+]([O-])=C1c1cccs1` (stereo not given) are 2400 nM and 6.5 µM.
On the same counts, the results for `CCOC(=O)N1CCN(CCCCCOc2ccccc2C2CCCCC2)CC1` are 2850 nM and 12.5 µM.
The corresponding values for `O=C1c2ccccc2-c2c1c1ccccc1c(=O)n2CCNCCn1c2c(c3ccccc3c1=O)C(=O)c1ccccc1-2` are over 25000 nM and over 25 µM.
`[2H]c1nc(=Nc2cc(NC(=O)C=C)c(N(C)CCN(C)C)cc2OC)[nH]c(-c2cn(C([2H])([2H])[2H])c3ccccc23)c1[2H]`: the GI50 is 1650 nM and the TGI is 3.17 µM.
